Laboratory results reported in ChEMBL document CHEMBL1201862, “PubChem BioAssay data set” (2004).
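96-well plates; 48 h exposure; 5 concentrations. Endpoints by linear interpolation between flanking doses. Not reached: highest tested concentration assigned. Abbreviation: GI50, concentration required for 50% inhibition of growth.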 Active and inactive are the calls of the source. No stated cut-off is given here; in the data, active = GI50 up to about 1.1 µM and inactive = higher.

Key:
Test in all cases: DTP human tumour cell line panel, 48 h
DMS-114 = test system: DMS-114
SN12C = test system: SN12C
KM-20L2 = test system: KM-20L2
UACC-62 = test system: UACC-62
HCT-116 = test system: HCT-116
DMS-273 = test system: DMS-273
Hs-578T = test system: Hs-578T
SK-MEL-2 = test system: SK-MEL-2
U-251 = test system: U-251
SF-268 = test system: SF-268
HCC 2998 = test system: HCC 2998
MDA-N = test system: MDA-N
MDA-MB-435 = test system: MDA-MB-435
SF-295 = test system: SF-295
NCI-H23 = test system: NCI-H23
RPMI-8226 = test system: RPMI-8226
CCRF-CEM = test system: CCRF-CEM
SK-MEL-5 = test system: SK-MEL-5
SNB-75 = test system: SNB-75
SR = test system: SR

Measured: GI50

CS(=O)(=O)c1cc(=O)c2ccccc2s1
inactive: DMS-114 4.82 µM | SN12C 9.53 µM | KM-20L2 11.7 µM | UACC-62 12.2 µM | HCT-116 1.96 µM | DMS-273 8.77 µM | Hs-578T 26.6 µM | SK-MEL-2 15.3 µM | U-251 19.7 µM | SF-268 14.1 µM | HCC 2998 14 µM | MDA-N 4.46 µM | MDA-MB-435 11 µM | SF-295 13.7 µM | NCI-H23 9.06 µM | RPMI-8226 2.42 µM | CCRF-CEM 1.53 µM | SK-MEL-5 14.3 µM | SNB-75 16 µM | SR 2.07 µM

CNC(=O)NC(CCCCNC(=O)OCc1ccccc1)C(=O)OCc1ccccc1 (stereo not given)
inactive: DMS-114 28.1 µM | SN12C 39.5 µM | KM-20L2 > 100 µM | UACC-62 16.7 µM | HCT-116 81.8 µM | DMS-273 35.9 µM | Hs-578T 79.8 µM | SK-MEL-2 17.8 µM | U-251 65.9 µM | SF-268 57.3 µM | HCC 2998 30.5 µM | MDA-N 19.5 µM | MDA-MB-435 19.6 µM | SF-295 60.8 µM | NCI-H23 47.6 µM | RPMI-8226 24.9 µM | CCRF-CEM 14.7 µM | SK-MEL-5 15.9 µM | SNB-75 5.69 µM | SR 19.9 µM
